Test [1] has as its target T1, Recombinant G2019S-LRRK2 protein (Homo sapiens, UniProt Q5S007, G2019S).
T1 construct: purchased Life Technologies PV4881
Nature of the test: LanthaScreen Kinase Activity Assay (TR-FRET), G2019S-LRRK2. The test is classed as biochemical. Conditions: class symbols; 25 μM ATP, 400 nM LRRKtide, 2.9 nM kinase, 60 min at room temperature. The protocol:
(§1) LRRK2 kinase activity was measured using a LanthaScreen™ Kinase Activity Assay from ThermoFisher Scientific. Recombinant wild type or G2019S-LRRK2 protein (Life Technologies, PR8604B or PV4881, respectively), was incubated with a fluorescein-labeled peptide substrate called LRRKtide that is based upon ezrin/radixin/moesin (ERM) (Life Technologies, PV4901) in the presence of ATP and serially diluted compound. After an incubation period of 1 hr, the phosphotransferase activity was stopped and a terbium-labelled anti-pERM antibody (Life Technologies, PV4899) was added to detect the phosphorylation of LRRKtide by measuring the time resolved-Forster resonant energy transfer (TR-FRET) signal from the terbium label on the antibody to the fluorescein tag on LRRKtide, expressed as the 520 nm/495 nm emission ratio. Compound-dependent inhibition of the TR-FRET signal was used to generate a concentration-response curve for IC50 determination.
(§2) The assay was carried out under the following protocol conditions: 1 mM compound in DMSO was serially diluted 1:3, 11 points in DMSO with a Biomek FX and 0.1 μL of the diluted compound was subsequently stamped into the assay plate (384-well format Lumitrac 200, Greiner, 781075) with an Echo Labcyte such that the final compound concentration in the assay was 10 μM to […]. Subsequently, 5 μL of 2× kinase solution (2.9 nM final concentration) was added to the assay plate in assay buffer composed of 50 mM Tris pH 8.5 (Sigma, T6791), 5 mM MgCl2 (Fluka, 63020), 1 mM EGTA (Sigma, E3889), 0.01% BRIJ-35 (Sigma, P1254) and 2 mM DTT. The reaction was started by addition of 2×ATP/LRRKtide solution in assay buffer such that the final concentration was 400 nM LRRKtide and 25 μM ATP. After 60 min incubation at room temperature, the reaction was stopped by addition of […] containing a final concentration of 2 nM anti-pERM antibody and 10 mM EDTA. After a 30 min incubation at RT, the TR-FRET signal was measured on a Wallac 2104 EnVision® multilabel reader at an excitation wavelength of 340 nm and reading emission at 520 nm and 495 nm. The ratio of the 520 nm and 495 nm emission was used to analyze the data.
(In general: In TR-FRET formats the signal depends on donor and acceptor labels being close together.)

The target in test [2] is T2, Recombinant wild type LRRK2 protein (Homo sapiens, UniProt Q5S007).
T2 construct: purchased Life Technologies PR8604B
T2 sequence (Q5S007 whole entry): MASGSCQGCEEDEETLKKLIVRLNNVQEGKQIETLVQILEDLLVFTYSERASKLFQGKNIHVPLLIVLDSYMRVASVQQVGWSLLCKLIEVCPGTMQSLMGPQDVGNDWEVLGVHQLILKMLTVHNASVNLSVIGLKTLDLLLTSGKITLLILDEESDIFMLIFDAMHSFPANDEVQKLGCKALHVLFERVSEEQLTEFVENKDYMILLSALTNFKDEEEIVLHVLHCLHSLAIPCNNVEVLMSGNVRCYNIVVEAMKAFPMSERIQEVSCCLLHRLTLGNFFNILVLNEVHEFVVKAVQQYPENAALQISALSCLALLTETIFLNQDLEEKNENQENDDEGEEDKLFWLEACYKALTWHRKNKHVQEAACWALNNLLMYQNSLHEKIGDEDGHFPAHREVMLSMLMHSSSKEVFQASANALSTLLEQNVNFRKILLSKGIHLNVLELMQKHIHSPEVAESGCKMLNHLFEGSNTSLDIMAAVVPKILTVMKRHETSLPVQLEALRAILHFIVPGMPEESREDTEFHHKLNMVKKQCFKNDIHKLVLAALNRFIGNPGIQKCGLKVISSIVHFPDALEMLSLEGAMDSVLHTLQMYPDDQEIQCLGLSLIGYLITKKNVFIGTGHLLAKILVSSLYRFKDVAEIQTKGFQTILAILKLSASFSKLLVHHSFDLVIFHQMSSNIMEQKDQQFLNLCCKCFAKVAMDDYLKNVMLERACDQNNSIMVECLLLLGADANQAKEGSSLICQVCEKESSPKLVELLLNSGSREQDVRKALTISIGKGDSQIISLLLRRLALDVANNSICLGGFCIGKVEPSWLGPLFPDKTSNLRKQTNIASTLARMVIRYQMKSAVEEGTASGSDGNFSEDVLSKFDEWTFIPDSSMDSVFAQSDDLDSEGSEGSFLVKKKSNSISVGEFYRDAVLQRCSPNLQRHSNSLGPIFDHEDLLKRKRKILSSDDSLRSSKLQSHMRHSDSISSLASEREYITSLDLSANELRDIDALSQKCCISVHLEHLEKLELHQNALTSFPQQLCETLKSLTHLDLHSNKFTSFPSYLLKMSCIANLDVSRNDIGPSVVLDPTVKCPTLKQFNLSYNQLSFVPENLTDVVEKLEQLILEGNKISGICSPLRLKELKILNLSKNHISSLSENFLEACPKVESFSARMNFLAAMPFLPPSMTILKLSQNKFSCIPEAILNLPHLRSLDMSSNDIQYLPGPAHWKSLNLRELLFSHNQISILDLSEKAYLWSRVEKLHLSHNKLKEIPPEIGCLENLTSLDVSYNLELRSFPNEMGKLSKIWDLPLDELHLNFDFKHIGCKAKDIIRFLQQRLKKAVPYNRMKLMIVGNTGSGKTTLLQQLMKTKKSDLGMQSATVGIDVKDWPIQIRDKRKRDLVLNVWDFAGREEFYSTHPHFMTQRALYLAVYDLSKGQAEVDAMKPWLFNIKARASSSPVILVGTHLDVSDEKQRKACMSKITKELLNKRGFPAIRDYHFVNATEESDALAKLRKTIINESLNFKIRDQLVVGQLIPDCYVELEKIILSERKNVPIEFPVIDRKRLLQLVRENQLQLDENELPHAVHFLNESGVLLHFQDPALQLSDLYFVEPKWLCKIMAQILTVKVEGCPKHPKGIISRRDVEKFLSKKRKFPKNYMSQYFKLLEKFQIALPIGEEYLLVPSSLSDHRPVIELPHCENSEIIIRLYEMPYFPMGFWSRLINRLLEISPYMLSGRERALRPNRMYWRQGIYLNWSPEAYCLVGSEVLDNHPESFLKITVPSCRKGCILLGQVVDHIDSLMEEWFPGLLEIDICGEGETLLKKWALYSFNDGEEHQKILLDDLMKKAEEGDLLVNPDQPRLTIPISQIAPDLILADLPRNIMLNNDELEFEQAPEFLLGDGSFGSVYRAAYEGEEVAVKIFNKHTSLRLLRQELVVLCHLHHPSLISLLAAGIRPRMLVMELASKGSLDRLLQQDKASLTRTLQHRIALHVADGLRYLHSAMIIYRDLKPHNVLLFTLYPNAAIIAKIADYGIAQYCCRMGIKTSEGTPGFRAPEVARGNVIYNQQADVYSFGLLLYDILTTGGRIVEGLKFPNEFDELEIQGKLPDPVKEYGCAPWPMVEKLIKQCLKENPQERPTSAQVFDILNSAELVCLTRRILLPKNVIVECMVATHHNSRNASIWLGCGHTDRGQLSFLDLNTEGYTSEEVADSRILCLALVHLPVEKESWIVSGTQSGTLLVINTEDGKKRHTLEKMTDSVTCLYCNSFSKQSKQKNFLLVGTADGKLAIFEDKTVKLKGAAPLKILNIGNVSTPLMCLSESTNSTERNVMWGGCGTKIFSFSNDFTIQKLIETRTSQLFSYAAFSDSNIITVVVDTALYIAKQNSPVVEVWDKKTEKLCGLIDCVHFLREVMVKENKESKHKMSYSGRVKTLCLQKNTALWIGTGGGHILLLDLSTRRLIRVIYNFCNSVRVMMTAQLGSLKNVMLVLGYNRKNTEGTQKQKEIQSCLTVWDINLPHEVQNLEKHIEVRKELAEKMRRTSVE
Nature of the test: LanthaScreen Kinase Activity Assay (TR-FRET), wild type LRRK2. The test is classed as biochemical. Conditions: class symbols; 25 μM ATP, 400 nM LRRKtide, 2.9 nM kinase, 60 min at room temperature; read-out: LRRK2 WT IC50. As for the experimental part:
as §1, §2

T1 sequence (Q5S007 whole entry G2019S): as the sequence (Q5S007 whole entry) above, with G2019S counted along it

For `CCCc1n[nH]c2ccc(NC(=O)c3c(F)cc4c(cnn4C)c3F)cc12` [Example 99, 4,6-Difluoro-1-methyl-N-(3-propyl-1H-indazol-5-yl)-1H-indazole-5-carboxamide], the half-inhibitory concentration (IC50) in test [1] is not above 100 nM; in test [2] it was 100 to 1000 nM.

As for `O=C(Nc1ccc2[nH]nc(-c3ccccc3)c2c1)c1cc2[nH]ncc2cc1Br` [Example 24, 5-Bromo-N-(3-phenyl-1H-indazol-5-yl)-1H-indazole-6-carboxamide], the half-inhibitory concentration (IC50) in test [1] and in test [2] was not above 100 nM each time.

On to `O=C(Nc1ccc2[nH]nc(-c3ccoc3)c2c1)C1CCc2nncn2C1` (single isomer, unassigned) [Example 162a], for which the concentration for half-maximal inhibition (IC50) in test [1] and in test [2] was not above 100 nM each time.

`Cn1ncc2c(F)c(C(=O)Nc3ccc4[nH]nc(-c5ccccc5F)c4c3)c(F)cc21` [Example 78, 4,6-Difluoro-N-(3-(2-fluorophenyl)-1H-indazol-5-yl)-1-methyl-1H-indazole-5-carboxamide]: the half-inhibitory concentration (IC50) in test [1] was not above 100 nM; in test [2], 100 to 1000 nM.

Take `Cc1cc2nn[nH]c2cc1C(=O)Nc1ccc2[nH]nc(-c3cccc(N4CCOCC4)c3)c2c1` [Example 2, 5-Methyl-N-(3-(3-morpholinophenyl)-1H-indazol-5-yl)-1H-benzo[d][1,2,3]triazole-6-carboxamide]: the IC50 in test [1] and in test [2] was not above 100 nM in each case.

With `CC1(C)c2nncn2CCN1C(=O)Nc1ccc2[nH]nc(-c3ccoc3)c2c1` [Example 172, N-(3-(Furan-3-yl)-1H-indazol-5-yl)-8,8-dimethyl-5,6-dihydro-[1,2,4]triazolo[4,3-a]pyrazine-7(8H)-carboxamide], the IC50 in test [1] and in test [2] was 100 to 1000 nM throughout.

Take `O=C(Nc1ccc2[nH]nc(-c3ccoc3)c2c1)c1ccc2nsnc2c1` [Example 120, N-(3-(Furan-3-yl)-1H-indazol-5-yl)benzo[c][1,2,5]thiadiazole-5-carboxamide]: the IC50 in test [1] was not above 100 nM; in test [2], 100 to 1000 nM.

Take `O=C(Nc1ccc2[nH]nc(-c3ccoc3)c2c1)c1ccc2nccn2c1` [Example 119, N-(3-(Furan-3-yl)-1H-indazol-5-yl)imidazo[1,2-a]pyridine-6-carboxamide]: the half-inhibitory concentration (IC50) in test [1] was not above 100 nM; in test [2], 100 to 1000 nM.

Take `O=C(Nc1ccc2[nH]nc(-c3ccoc3)c2c1)c1ccc2scnc2c1` [Example 124, N-(3-(Furan-3-yl)-1H-indazol-5-yl)benzo[d]thiazole-5-carboxamide]: the half-maximal inhibitory concentration (IC50) in test [1] and in test [2] was 100 to 1000 nM each time.

Take `Cc1nc2cncn2c(C)c1C(=O)Nc1ccc2[nH]nc(I)c2c1` [Example 111, N-(3-Iodo-1H-indazol-5-yl)-2,4-dimethylimidazo[1,5-a]pyrimidine-3-carboxamide]: the IC50 in test [1] and in test [2] was not above 100 nM each time.

Turning to `Cc1cc2cncn2cc1C(=O)Nc1ccc2[nH]nc(-c3ccoc3)c2c1` [Example 146, N-(3-(Furan-3-yl)-1H-indazol-5-yl)-7-methylimidazo[1,5-a]pyridine-6-carboxamide], the half-inhibitory concentration (IC50) in test [1] and in test [2] was not above 100 nM each time.

For `O=C(Nc1ccc2[nH]nc(-c3ccoc3)c2c1)c1cnc2nccn2c1` [Example 129, N-(3-(Furan-3-yl)-1H-indazol-5-yl)imidazo[1,2-a]pyrimidine-6-carboxamide], the figures for the IC50 in test [1] and in test [2] were not above 100 nM and 100 to 1000 nM, respectively.

On to `Cc1cc2cnnn2c(C)c1C(=O)Nc1ccc2[nH]nc(-c3ccccc3)c2c1` [Example 48, 5,7-Dimethyl-N-(3-phenyl-1H-indazol-5-yl)-[1,2,3]triazolo[1,5-a]pyridine-6-carboxamide], for which the IC50 in test [1] and in test [2] was not above 100 nM each time.

Turning to `Cc1nc2ccc(C(=O)Nc3ccc4[nH]nc(-c5ccoc5)c4c3)cc2o1` [Example 134, N-(3-(Furan-3-yl)-1H-indazol-5-yl)-2-methylbenzo[d]oxazole-6-carboxamide], the IC50 is not above 100 nM in test [1] and 100 to 1000 nM in test [2].

With `Cc1c(C(=O)Nc2ccc3[nH]nc(-c4ccccc4)c3c2)ccn2nncc12` [Example 149, 4-Methyl-N-(3-phenyl-1H-indazol-5-yl)-[1,2,3]triazolo[1,5-a]pyridine-5-carboxamide], the half-inhibitory concentration (IC50) in test [1] and in test [2] was not above 100 nM in each case.

As for `Cc1cc2nn(C)nc2cc1C(=O)Nc1ccc2[nH]nc(C)c2c1` [Example 3, 2,6-Dimethyl-N-(3-methyl-1H-indazol-5-yl)-2H-benzo[d][1,2,3]triazole-5-carboxamide], the IC50 in test [1] and in test [2] was 1000 to 10000 nM each time.

With `Cc1cc2nncn2c(C)c1C(=O)Nc1ccc2[nH]nc(C)c2c1` [Example 61, 5,7-Dimethyl-N-(3-methyl-1H-indazol-5-yl)-[1,2,4]triazolo[4,3-a]pyridine-6-carboxamide], the IC50 in test [1] was not above 100 nM; in test [2], 100 to 1000 nM.

With `Cc1ccc(-c2n[nH]c3ccc(NC(=O)c4c(F)cc5c(cnn5C)c4F)cc23)s1` [Example 97, 4,6-Difluoro-1-methyl-N-(3-(5-methylthiophen-2-yl)-1H-indazol-5-yl)-1H-indazole-5-carboxamide], the IC50 in test [1] and in test [2] was not above 100 nM in each case.

`Cc1cc2c(C)nnn2c(C)c1C(=O)Nc1ccc2[nH]nc(-c3ccccc3)c2c1` [Example 64, 3,5,7-Trimethyl-N-(3-phenyl-1H-indazol-5-yl)-[1,2,3]triazolo[1,5-a]pyridine-6-carboxamide]: the figures for the IC50 in test [1] and in test [2] were not above 100 nM and 100 to 1000 nM, respectively.

Consider `COc1ncccc1-c1n[nH]c2ccc(NC(=O)c3c(F)cc4c(cnn4C)c3F)cc12` [Example 81, 4,6-Difluoro-N-(3-(2-methoxypyridin-3-yl)-1H-indazol-5-yl)-1-methyl-1H-indazole-5-carboxamide], for which the concentration for half-maximal inhibition (IC50) is not above 100 nM in test [1] and 100 to 1000 nM in test [2].

Take `Cn1ncc2c(F)c(C(=O)Nc3ccc4[nH]nc(-c5ccsc5)c4c3)c(F)cc21` [Example 100, 4,6-Difluoro-1-methyl-N-(3-(thiophen-3-yl)-1H-indazol-5-yl)-1H-indazole-5-carboxamide]: the 50% inhibitory concentration (IC50) in test [1] and in test [2] was not above 100 nM in each case.

As for `Cn1ncc2c(F)c(C(=O)Nc3ccc4[nH]nc(N5CCCC5)c4c3)c(F)cc21` [Example 108, 4,6-Difluoro-1-methyl-N-(3-(pyrrolidin-1-yl)-1H-indazol-5-yl)-1H-indazole-5-carboxamide], the IC50 lay in the range of 100 to 1000 nM in test [1] and 1000 to 10000 nM in test [2].

On to `Cc1cc2cnnn2c(C)c1C(=O)Nc1ccc2[nH]nc(C)c2c1` [Example 49, 5,7-Dimethyl-N-(3-methyl-1H-indazol-5-yl)-[1,2,3]triazolo[1,5-a]pyridine-6-carboxamide], for which the figures for the half-inhibitory concentration (IC50) in test [1] and in test [2] were not above 100 nM and 1000 to 10000 nM, respectively.

`Cc1n[nH]c2ccc(NC(=O)c3ccc4nn[nH]c4c3)cc12` [Example 9, N-(3-Methyl-1H-indazol-5-yl)-1H-benzo[d][1,2,3]triazole-6-carboxamide]: the IC50 in test [1] and in test [2] was 1000 to 10000 nM in each case.

Consider `Cc1n[nH]c2ccc(NC(=O)c3c(Cl)cn4cnnc4c3Cl)cc12` [Example 56, 6,8-Dichloro-N-(3-methyl-1H-indazol-5-yl)-[1,2,4]triazolo[4,3-a]pyridine-7-carboxamide], for which the half-inhibitory concentration (IC50) in test [1] was not above 100 nM; in test [2] it was 100 to 1000 nM.

Take `Cn1ncc2c(F)c(C(=O)Nc3ccc4[nH]nc(-n5ccnc5)c4c3)c(F)cc21` [Example 141, N-(3-(1H-Imidazol-1-yl)-1H-indazol-5-yl)-4,6-difluoro-1-methyl-1H-indazole-5-carboxamide]: the IC50 in test [1] is not above 100 nM; in test [2], 100 to 1000 nM.

Take `Cn1ncc2c(F)c(C(=O)Nc3ccc4[nH]nc(-c5ccccc5O)c4c3)c(F)cc21` [Example 75, 4,6-Difluoro-N-(3-(2-hydroxyphenyl)-1H-indazol-5-yl)-1-methyl-1H-indazole-5-carboxamide]: the IC50 in test [1] lay within 100 to 1000 nM; in test [2] it was 1000 to 10000 nM.

Take `Cc1cc2c(C)ncn2c(C)c1C(=O)Nc1ccc2[nH]nc(C)c2c1` [Example 148, 1,5,7-Trimethyl-N-(3-methyl-1H-indazol-5-yl)imidazo[1,5-a]pyridine-6-carboxamide]: the IC50 was not above 100 nM in test [1] and 100 to 1000 nM in test [2].

The term IC50 denotes the concentration that inhibits the measured activity by half.
